Reference: patent US20130136778A1, “PTEROSTILBENE (PTER) FOR USE IN THE PREVENTION AND/OR TREATMENT OF SKIN DISEASES, DAMAGES OR INJURIES” (GREEN MOLECULAR, S.L., priority 2009, published 2013)

What was measured:
Assay type in all cases: in vivo
[1] = tested on: SKH-1 mice; test: Anatomopathological study of the skin after chronic exposure to UV-B; conditions: chronic UV-B irradiation
Description: Histochemical techniques were used to study the skin tissues of the different procedures, at a microscopic level.
The tissues were fixed in 4% formaldehyde in PBS over 24 h at 22° C. After the tissues were fixed, they had to be dehydrated in large amounts of ethanol and placed in a hydrophobic and xylene mixture to allow the paraffin to penetrate the tissues to provide sufficient consistency for slicing them thinly in a microtome.
The samples in paraffin were processed with the microtome obtaining slices of about 5-10 μm. The samples were spread over a drop of gelatin at 37° C. and were collected in gelatinized slides.
The protocol used for staining the samples was: • 1. Incubation with Mayer's Hematoxylin for 10-15 minutes. • 2. Wash under running water until bluish. • 3. Incubate with Eosin (1%) for 2-4 minutes. • 4. Eliminate the remaining eosin in ethanol 70° • 5. Dehydration. • 6. Rinse with xylol for 3 minutes. • 7. Let the trays dry out on the stove at 37°.
In relation to the histopathological exam of the tumors induced by chronic irradiation to UV in the SKH1 mice, it was confirmed that the treatment with UV-B produced a strong acanthosis due primarily to the inflammatory process; this gave way to the first signs of tumors, mostly of carcinoma type and not melanoma.
Both the reference compounds and the ones subject of this study (10 μmoles/mouse of polyphenols, or 200 μl of each photoprotector) were applied to the back of the mice for 20 minutes prior to their exposure to UV-B. Medium of groups of 20 mice. Every parameter was measured according to the degree of seriousness (+) light-(+++) serious.

[2] = tested on: SKH-1 mice; test: Experimental atopic dermatitis induced by TNCB
Description: Also, on certain specific days prior to sacrificing them, the mice were assessed by a veterinarian who analyzed the skin lesions, qualifying them in function of: • Erythema: redness of the skin conditioned by inflammation due to the excess of blood irrigation by the dilation of blood vessels. • Excoriation: or irritation of the skin with flaky aspect, increase in the descaling of the skin which could result in hyperkeratosis. • The depth of the lesion that could reach the dermis producing soars or ulcers. Each variable was evaluated on a scale of 0-4, 0, for none; 1, for mild; 2, for moderate; 3, marked; and 4, very marked. The addition of the 3 values of each mouse indicated the degree of inflammation. […] Furthermore, the continuous administration of TNCB ointment increased the production of T-lymphocytes, mastocytes and IgE in the serum, as it occurs among human patients with atopic dermatitis. […] Nonetheless, the objective evaluation of these characteristics is complex, and the measuring of the loss of transepidermal water (PTEA or TEWL) assessed through the Tewameter TM 210 system (CK electronics, Germany) is considered an indicator of the functions of cutaneous “barriers” (g/h/cm2). […] TEWL readings were performed continuously until the metrics were stabilized, which can produce between 30-60 seconds of readings.

[3] = tested on: BALB/c mice; test: Contact hypersensitivity induced by oxazolone (ear edema); conditions: FIG. 22; 1 μmol polyphenols, 20 mg diprosone; applied after oxazolone
Description: The edema was calculated as the difference between the thickness that was produced in the ears, before the outcomes of the reaction, and their thickness 24 hours later, and it was measured with a vernier caliper.
The change was expressed as the relative increase in relation to day 0.
The application of oxazolone after sensitization to the same substance produces a reaction of hypersensitivity by contact, which appears as an eczematous reaction, with infiltration of lymphocytes and macrophages, with edema of the epidermis.
The BALB/c mice are sensitized on day 0 through the application, on the shaved abdomen, of 100 μL of oxazolone at 1.5% in acetone (w/v). Prior to the induction for hypersensitization, the thickness of the ear was measured with the help of a vernier caliper (Mitutoyo micrometer). The reaction was caused on day 7 by applying 20 μL of 2.5% oxazolone in ethanol (10 μL to each side of the right ear).
As a control measure the left ear was used, to which 20 μL of ethanol was applied. And a standard treatment, Diprosone® cream was used: (Schering Plough B. V., Utrecht, The Netherlands), that contains 0.5 mg de betamethasone/g. […]

COc1cc(/C=C/c2ccc(O)cc2)cc(OC)c1 [PTER, 3,5-dimethoxy-4′-hydroxy-trans-resveratrol]
anti-inflammatory and anti-tumor formation effect, histopathological exam [1]: the compound with greatest benefits
increase in the skinfold 24 hours after the first administration of TNCB ([2]; FIG. 19, 10 μmoles polyphenols, 0.5 μmoles dexamethasone 24 h before 1% TNCB): decreased their inflammatory effect due to the TNCB agent
index of lesions (macroscopic assessment) ([2]; TNCB model, up to 4 applications of TNCB): produced less serious lesions than with the use of dexamethasone or with respect to the lack of treatment
edema of the ear / inflammatory changes induced by oxazolone [3]: could prevent inflammatory changes as a result of inflammation induced by oxazolone
